In patent US20250376471A1, “CRYSTALLINE FORMS OF 2-[3-[4-AMINO-3-(2-FLUORO-4-PHENOXY-PHENYL)PYRAZOLO[3,4-D]PYRIMIDIN-1-YL]PIPERIDINE-1-CARBONYL]-4-METHYL-4-[4-(OXETAN-3-YL)PIPERAZIN-1-YL]PENT-2-ENENITRILE” (Principia Biopharma Inc., priority 2022, published 2025):
Converted amounts (≈) assume the structure as drawn. “And” between values parts separate entries of the source, which are not always exact repeats. Equal values may be shown once.

How the values were obtained:
[1] = Comparative solubility in Milli-Q purified water (HPLC); conditions: for pH: water, 24 hr
Procedure: (§1) Using the stock solution, a dilution series for the purpose of HPLC quantitation was generated according to the following Table 8.
First, a quantity of test sample was placed in a 2-dram vial equipped with stir bar. […] In the second step, Milli-Q water was added to the vial under stirring followed by measuring the pH of the resulting suspension/solution. […] In each case, the sample was filtered through a 0.2 μm filter. The resulting solution was appropriately diluted to fall within the calibrated concentration range on HPLC. The sampling was repeated in identical fashion after 3 hr and 24 hr. After the last sample was taken, the pH was recorded again. The dissolved sample was determined by converting the recorded area on HPLC to concentration in mg/mL using the established calibration equation.

[2] = Comparative solubility in aqueous buffers (HPLC); assay type: physicochemical
Procedure: as §1
Next, the second step of this modified procedure involved adding a buffer (5 mL) to the vial under stirring followed by measuring the pH of the resulting suspension. In case the pH drifted by more than 0.1 unit from the target pH, 10 μL aliquots of 1M NaOH (aq.) were used to readjust the pH to the original value. […] As above in 9.2, the samples were filtered through a 0.2 μm filter, and the resulting solution was appropriately diluted to fall within the calibrated concentration range on HPLC. The sampling was repeated in an identical fashion after 3 hr and 24 hr and after the last sample was taken, the pH was recorded again. The dissolved sample was determined by converting the recorded area on HPLC to concentration in mg/mL using the established calibration equation.

[3] = Hygroscopicity (GVS analysis) and solid-state properties of methyl paraben co-crystal; assay type: physicochemical
Excerpt: The co-crystal is also readily prepared from anti-solvent addition and generates a good yield.

[4] = Static storage analysis (XRPD pre- and post-storage); assay type: physicochemical; conditions: stored for one week at 25° C. and 40° C.
Procedure: Samples of methyl paraben co-crystalline form of Compound (I) (Example 10), after drying in a vacuum oven were stored for one week at 25° C. and 40° C.

[5] = Solubility of methyl paraben co-crystal in pH 4.5 and 6.8 buffer (HPLC); assay type: physicochemical
Procedure: The sample was suspended in 1.5 mL media for a maximum anticipated concentration of Ca. […] The resulting suspensions were then shaken at 25° C./750 rpm for 24 hr. After 1 hr, 3 hr and 24 hr of equilibration, 0.5 mL of sample was aliquoted, the appearance was noted, and the pH of the saturated solution was measured. Samples were then centrifuged at 13,400 rpm for 2 min. Supernatant was used for HPLC analysis. Samples suspended in pH 4.5 buffer were diluted 1:1 (1- and 3-hr samples) and 1:8 (24 hr samples) with pH 4.5 buffer. Samples suspended in pH 6.8 buffer were analyzed undiluted. […] Different volumes of the standard diluted and undiluted sample solutions were injected.

[6] = Comparative grinding study (XRPD pre- and post-grinding); assay type: physicochemical; conditions: 40 mg ground at 30 Hz for 30 min with steel ball bearing
Procedure: The samples were each ground at 30 Hz for 30 min, then reanalyzed by XRPD.

[7] = Compression study (XRPD pre- and post-compression); assay type: physicochemical; conditions: 6 mm recess disc, 100 kg of pressure for 2 min
Procedure: The methyl paraben co-crystalline form of Compound (I) after drying in a vacuum oven was compressed into a 6 mm recess disc under 100 kg of pressure for 2 min.

[8] = Visual solubility of Form B crystal in common solvents at RT; assay type: physicochemical; conditions: organic solvent or mixture, thermodynamic from solid, visually estimated
Excerpt: The solubility was visually estimated in 12 common solvents at RT.

[9] = pH 4.5 buffer, 1 hour, 25° C., single sample

Compound: CC(C)(C=C(C#N)C(=O)N1CCCC(n2nc(-c3ccc(Oc4ccccc4)cc3F)c3c(N)ncnc32)C1)N1CCN(C2COC2)CC1 (centres unmarked) [Compound (I) amorphous, 2-[3-[4-amino-3-(2-fluoro-4-phenoxy-phenyl)pyrazolo[3,4-d]pyrimidin-1-yl]piperidine-1-carbonyl]-4-methyl-4-[4-(oxetan-3-yl)piperazin-1-yl]pent-2-enenitrile]
- pH [1]: 8.3
- pH ([2]; 50 mM Acetate, 0 hr): 4.5
- pH ([2]; 50 mM Acetate, 24 hr): 4.5

Compound: CC(C)(C=C(C#N)C(=O)N1CCCC(n2nc(-c3ccc(Oc4ccccc4)cc3F)c3c(N)ncnc32)C1)N1CCN(C2COC2)CC1.O=C(O)C(=O)O (centres unmarked) [Oxalate salt, 2-[3-[4-amino-3-(2-fluoro-4-phenoxy-phenyl)pyrazolo[3,4-d]pyrimidin-1-yl]piperidine-1-carbonyl]-4-methyl-4-[4-(oxetan-3-yl)piperazin-1-yl]pent-2-enenitrile: oxalate crystalline salt hydrate Form A]
- pH [1]: 2.9
- pH ([2]; 50 mM Acetate, 0 hr): 4.5
- pH ([2]; 50 mM Acetate, 24 hr): 4.27
- pH ([2]; 100 mM Acetate, 0 hr): 4.5
- pH ([2]; 100 mM Acetate, 24 hr): 4.5

Compound: CC(C)(C=C(C#N)C(=O)N1CCCC(n2nc(-c3ccc(Oc4ccccc4)cc3F)c3c(N)ncnc32)C1)N1CCN(C2COC2)CC1.Cl (centres unmarked) [HCl salt, 2-[3-[4-amino-3-(2-fluoro-4-phenoxy-phenyl)pyrazolo[3,4-d]pyrimidin-1-yl]piperidine-1-carbonyl]-4-methyl-4-[4-(oxetan-3-yl)piperazin-1-yl]pent-2-enenitrile: HCl crystalline salt Form A]
- solubility as compared with amorphous form and Compound (I) Form B ([1]; Example 9, FIGS. 24A-C, water and buffers): significantly enhanced solubility
- pH [1]: 4.0
- pH ([2]; 50 mM Acetate, 0 hr): 4.5
- pH ([2]; 50 mM Acetate, 24 hr): 4.4

Compound: CC(C)(C=C(C#N)C(=O)N1CCCC(n2nc(-c3ccc(Oc4ccccc4)cc3F)c3c(N)ncnc32)C1)N1CCN(C2COC2)CC1 (centres unmarked) [Methyl paraben co-crystal, 2-[3-[4-amino-3-(2-fluoro-4-phenoxy-phenyl)pyrazolo[3,4-d]pyrimidin-1-yl]piperidine-1-carbonyl]-4-methyl-4-[4-(oxetan-3-yl)piperazin-1-yl]pent-2-enenitrile]
- water absorbed (hygroscopicity) ([3]; between 0 and 90% RH): 2.3 % w/w
- XRPD pattern after GVS analysis, static storage conditions, grinding and compression studies, and kinetic solubility analysis ([3]; solid form stability): remained the same XRPD pattern
- solid form after storage (XRPD) [4]: retained its crystalline structure
- solubility at 3 h ([5]; pH 4.5 buffer, 25 °C, pH 4.5, aqueous buffer, thermodynamic from solid, 3 hour, single sample): 0.98 mg/mL
- solubility at 1 h ([5]; pH 4.5 buffer, 25 °C, pH 4.5, aqueous buffer, thermodynamic from solid, pH 4.5 buffer, 1 hour, 25° C., single sample, read-out: Solubility): 0.65 mg/mL
- solubility at 1 h ([5]; pH 4.5 buffer, 25 °C, pH 4.5, aqueous buffer, thermodynamic from solid, pH 4.5 buffer, 1 hour, 25° C., read-out: Average Solubility): 0.65 mg/mL
- Solubility [5, 9]: 0.64 mg/mL
- pH [5, 9]: 4.6
- pH ([5]; pH 4.5 buffer, 3 hour, 25° C., single sample): 4.7 and 4.6
- pH ([5]; pH 4.5 buffer, 24 hour, 25° C., single sample): 4.7
- pH ([5]; pH 6.8 buffer, 1 hour, 25° C., single sample): 6.8
- pH ([5]; pH 6.8 buffer, 3 hour, 25° C., single sample): 6.8
- pH ([5]; pH 6.8 buffer, 24 hour, 25° C., single sample): 6.9 and 6.8
- XRPD pattern post-solubility analysis ([5]; solid form stability after solubility test): no change in the pattern
- solid form after grinding (XRPD) [6]: retained its co-crystalline structure pattern with only a limited reduction in overall crystallinity
- solid form after drying and compression (XRPD) [7]: retained its co-crystalline structure pattern with only a limited reduction in overall crystallinity

Compound: CC(C)(C=C(C#N)C(=O)N1CCCC(n2nc(-c3ccc(Oc4ccccc4)cc3F)c3c(N)ncnc32)C1)N1CCN(C2COC2)CC1 (centres unmarked) [Compound (I) Form B, 2-[3-[4-amino-3-(2-fluoro-4-phenoxy-phenyl)pyrazolo[3,4-d]pyrimidin-1-yl]piperidine-1-carbonyl]-4-methyl-4-[4-(oxetan-3-yl)piperazin-1-yl]pent-2-enenitrile]
- pH [1]: 7.8
- solubility at 15 min ([8]; 4-Methyl-2-pentanone (MIBK)): 20 to 100 mg/mL (≈ 30 to 150 mM)
- solubility at 15 min ([8]; Acetone): > 100 mg/mL
- solubility at 15 min ([8]; Acetonitrile (MeCN)): 20 to 100 mg/mL (≈ 30 to 150 mM)
- solubility at 15 min ([8]; Cyclohexane): < 20 mg/mL
- solubility at 15 min ([8]; Cyclohexanone): 20 to 100 mg/mL (≈ 30 to 150 mM)
- solubility at 15 min ([8]; Dichloromethane (DCM)): > 100 mg/mL
- solubility at 15 min ([8]; Dimethyl carbonate (DMC)): 20 to 100 mg/mL (≈ 30 to 150 mM)
- solubility at 15 min ([8]; Ethyl acetate (EtOAc)): 20 to 100 mg/mL (≈ 30 to 150 mM)
- solubility at 15 min ([8]; Isopropyl ether (IPE)): < 20 mg/mL
- solubility at 15 min ([8]; Tetrahydrofuran (THF)): > 100 mg/mL
- solubility at 15 min ([8]; Toluene): < 20 mg/mL
- solubility at 15 min ([8]; t-Butyl Methyl Ether (MTBE)): < 20 mg/mL
- solid form after grinding (XRPD) ([6]; listed as Form B crystalline form of Compound (I)): became amorphous after grinding
- pH ([2]; 50 mM Acetate, 0 hr): 4.5
- pH ([2]; 50 mM Acetate, 24 hr): 4.5
- solubility at 1 h ([2]; 50 mM acetate buffer, pH 4.5, aqueous buffer, thermodynamic from solid, 50 mM Acetate, 1 hr): 1.7 mg/mL (≈ 2.55 mM)

Compound: CC(C)(C=C(C#N)C(=O)N1CCCC(n2nc(-c3ccc(Oc4ccccc4)cc3F)c3c(N)ncnc32)C1)N1CCN(C2COC2)CC1.O=C(O)/C=C\C(=O)O (centres unmarked) [Maleate, 2-[3-[4-amino-3-(2-fluoro-4-phenoxy-phenyl)pyrazolo[3,4-d]pyrimidin-1-yl]piperidine-1-carbonyl]-4-methyl-4-[4-(oxetan-3-yl)piperazin-1-yl]pent-2-enenitrile: maleate crystalline salt Form A]
- pH [1]: 3.5
- pH ([2]; 50 mM Acetate, 0 hr): 4.5
- pH ([2]; 50 mM Acetate, 24 hr): 4.0
- pH ([2]; 100 mM Acetate, 0 hr): 4.5
- pH ([2]; 100 mM Acetate, 24 hr): 4.5
